Like-named read-outs stand apart in the source and are kept apart here.
System: Aβ1-42 production
Assay: Cellular assay for inhibition of Aβ1-42 production (H4 APP751 SWE clone 8.20)
Type: cell-based
Settings: H4 APP751 SWE clone 8.20 cells, 19 h incubation
Outline: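 Aβ42 level read with antibodies 565, against the Aβ42 neoepitope, and N-terminal 26D6, incubated overnight at 4° C, after exposure of H4 APP751 SWE clone 8.20 cells to compound for 19 h at 37° C. Medium was DMEM plus 0.0125% BSA, 1.5×10^4 cells/well. IC50 values come from curve fitting.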

[1] = 19 h, read-out: Activity Rating (based on Aβ42 cellular IC50 values)
[2] = read-out: Activity Rating (based on Aβ42 cellular IC50 values)

IC50 [1] [nM] | IC50 [2] [nM] | Molecule | other results
 |  | COc1cc(Nc2nc3n(n2)CCCCC3c2ccc(-n3cncn3)cc2)ccc1-n1cnc(Cl)c1 (stereo not shown) [Example 172, 9-(4-(1H-1,2,4-triazol-1-yl)phenyl)-N-(4-(4-chloro-1H-imidazol-1-yl)-3-methoxyphenyl)-6,7,8,9-tetrahydro-5H-[1,2,4]triazolo[1,5-a]azepin-2-amine 2,2,2-trifluoroacetate] | IC50 (19 h, read-out: Activity Rating (Aβ42 cellular IC50, given as a number)): 64 nM
100 to 1000 |  | COc1cc(Nc2nc3n(n2)CCCCC3c2ccc(-n3ccnc3)cc2)ccc1-n1cnc(Cl)c1 (stereo not shown) [Example 173, 9-(4-(1H-imidazol-1-yl)phenyl)-N-(4-(4-chloro-1H-imidazol-1-yl)-3-methoxyphenyl)-6,7,8,9-tetrahydro-5H-[1,2,4]triazolo[1,5-a]azepin-2-amine 2,2,2-trifluoroacetate] | 
< 10 |  | COc1cc(Nc2nc3n(n2)CCCCC3c2ccc(-n3cc(C)cn3)cc2)ccc1-n1cnc(Cl)c1 (stereo not shown) [Example 174, N-(4-(4-chloro-1H-imidazol-1-yl)-3-methoxyphenyl)-9-(4-(4-methyl-1H-pyrazol-1-yl)phenyl)-6,7,8,9-tetrahydro-5H-[1,2,4]triazolo[1,5-a]azepin-2-amine 2,2,2-trifluoroacetate] | 
10 to 100 |  | COc1cc(Nc2nc3n(n2)CCCCC3c2ccc(OC(F)(F)F)cc2)c(F)cc1-n1cnc(C)n1 (stereo not shown) [Example 175, N-(2-fluoro-5-methoxy-4-(3-methyl-1H-1,2,4-triazol-1-yl)phenyl)-9-(4-(trifluoromethoxy)phenyl)-6,7,8,9-tetrahydro-5H-[1,2,4]triazolo[1,5-a]azepin-2-amine] | 
 | 10 to 100 | (R)—N-(3-fluoro-4-(5-methyl-1H-1,2,4-triazol-1-yl)phenyl)-9-(4-fluorophenyl)-6,7,8,9-tetrahydro-5H-[1,2,4]triazolo azepin-2-amine [Example 95] | 
 | 10 to 100 | (S)—N-(2-fluoro-5-methoxy-4-(3-methyl-1H-1,2,4-triazol-1-yl)phenyl)-9-(4-(2,2,2-trifluoroethoxy)phenyl)-6,7,8,9-tetrahydro-5H-[1,2,4]triazolo azepin-2-amine [Example 117] | 
 | < 10 | S)—N-(4-(4-chloro-1H-imidazol-1-yl)-3-methoxyphenyl)-9-(3,4-difluorophenyl)-6,7,8,9-tetrahydro-5H-[1,2,4]triazolo[1,5-a]azepin-2-amine [Example 23] | 

Source: patent US8349880B2, “Bicyclic compounds for the reduction of beta-amyloid production” (Bristol-Myers Squibb Company, priority 2009, dated 2013)
